# Measurements published in patent publication US20230143604A1, “QW DOSING OF GIP RECEPTOR AGONIST PEPTIDE COMPOUNDS AND USES THEREOF” (TAKEDA PHARMACEUTICAL COMPANY LIMITED, priority 2020, published 2023).
# Where two headings read alike, the source gives them in different places.
# Experiments:
# [1] = physchem
# Procedure, shortened: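 Solubility at pH 7.4 determined by stepwise addition of 200 mM phosphate buffer in 100 μL increments to 3 mg peptide, mixing briefly each time, until no insoluble material remained, then measured by liquid chromatography.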
# [2] = Pharmacokinetics in dog after IV and SC dosing; details: in vivo, 3 nmol/kg
# Procedure, shortened: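 Dogs were dosed IV or SC at 1 mL/kg with peptide at 3 nmol/mL in 10% DMSO/0.09% Polysorbate/PBS pH 7.4. K2-EDTA plasma was sampled to 336 h, and peptide was quantified by LCMS to derive half-life.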
# [3] = system: female beagle dogs; assay: PYY-1119-induced vomiting in dogs; type: in vivo; details: 3 nmol/kg s.c., 72 hours post-dose (lower line)
# Description: The GIPR agonist peptide compounds of the present disclosure or vehicle (0.09% [w/v] Tween 80/10% DMSO/PBS) were administered subcutaneously (sc) at 3-10 nmol/kg to female beagle dogs (10 months old), followed by sc injections with Y2R agonist ((4-imidazolecarbonyl-Ser-D-Hyp-Iva-Pya(4)-Cha-Leu(Me)-Asn-Lys-Aib-Thr-Arg-Gln-Arg-Cha-NH2), […]), […]) at 1 hour or specified hours in the table postdose. Emetic episodes were counted for 2 hours after administration (by blinded analysis).
# [4] = system: Dogs; type: in vivo; details: 30 nmol/kg s.c.
# Description: Dogs are transferred to an observation cage (700 mm W×700 mm D×700 mm H [W×D×H], without food) on 1 day before each apomorphine challenge. The dogs are weighed by using an electronic balance then test peptide compounds and vehicle will be administrated via the subcutaneous route. Apomorphine is challenged at 8 hr after the administration and emetic events will be monitored for 1 h by video recording. The second apomorphine challenge will be 72 hr after the administration and emetic events will be recorded by the same protocol. Emesis symptoms are continuously recorded using a video camera and stored on a blue ray disc. Observation of symptoms include retching (a rhythmic contraction of the abdomen) and vomiting (vomiting behavior, including the elimination of vomitus or similar behavior). Besides, the combination of retching and vomiting is defined as emesis, and the number of episodes, latency (time elapsed from morphine administration until the onset of the first emesis symptom), duration (time elapsed between the onset of the first and final episodes of emesis), and frequency (number of animals showing emesis/number of experimental animals) of each of these symptoms is calculated. The latency in cases where emesis symptoms are not noted is taken as the maximum value (1 h for apomorphine challenge) at the end of observation. When the duration of the emesis symptoms is less than 1 min, the duration is recorded, for convenience, as 1 min.
compound,measurement,setting,value
"CC[C@H](C)[C@H](NC(=O)[C@H](CO)NC(=O)[C@H](Cc1ccc(O)cc1)NC(=O)[C@H](CC(=O)O)NC(=O)[C@H](CO)NC(=O)[C@@H](NC(=O)[C@H](Cc1ccccc1)NC(=O)[C@@H](NC(=O)CNC(=O)[C@H](CCC(=O)O)NC(=O)C(C)(C)NC(=O)[C@H](Cc1ccc(O)cc1)NC)[C@@H](C)O)[C@@H](C)CC)C(=O)N[C@@H](C)C(=O)N[C@@H](CCCCNC(=O)CNC(=O)CNC(=O)CNC(=O)CNC(=O)CNC(=O)CCCCCCCCCCCCCCCCC(=O)O)C(=O)N[C@@H](CC(=O)O)C(=O)N[C@@H](CCCNC(=N)N)C(=O)NC(C)(C)C(=O)N[C@@H](C)C(=O)N[C@@H](CCC(N)=O)C(=O)NC(C)(C)C(=O)N[C@@H](CC(N)=O)C(=O)N[C@@H](Cc1ccccc1)C(=O)N[C@H](C(=O)N[C@@H](CC(N)=O)C(=O)N[C@@H](Cc1c[nH]c2ccccc12)C(=O)N[C@@H](CC(C)C)C(=O)N[C@@H](CC(C)C)C(=O)N[C@@H](C)C(=O)N[C@@H](CCC(N)=O)C(=O)N[C@@H](CO)C(=O)N1CCC[C@H]1C(=O)N[C@@H](CO)C(=O)N[C@@H](CO)C(=O)NCC(=O)N[C@@H](C)C(=O)N1CCC[C@H]1C(=O)N1CCC[C@H]1C(=O)N1CCC[C@H]1C(=O)N[C@@H](CO)C(=O)O)C(C)C [Compound 45, Me-Y-Aib-E-G-T-F-I-S-D-Y-S-I-A-Km-D-R-Aib-A-Q-Aib-N-F-V-N-W-L-L-A-Q-S-P-S-S-G-A-P-P-P-S-OH]",solubility,[1]; pH 7.4,≥ 15 mg/mL
same,solubility,"[1]; pH 7.4, aqueous buffer",≥ 60 mg/mL
same,half-life,[2]; iv,62 h
same,MRT last,[2]; sc,125 h
same,Inhibition (%) of PYY-1119-induced emetic event,[3],90% (3 nmol/kg)
same,% inhibition of emetic events at doses (nmol/kg) shown in dog apomorphine model,[4]; after 8 hrs (upper),70% (30 nmol/kg)
same,% inhibition of emetic events at doses (nmol/kg) shown in dog apomorphine model,[4]; after 72 hours (lower),72% (30 nmol/kg)
